The assay relates to P. falciparum K1 (strain resistant to chloroquine and pyrimethamine), erythrocytic stages. Put plainly: Plasmodium falciparum in vitro assay, [3H] hypoxanthine incorporation. The settings on record: Plasmodium falciparum, K1, P. falciparum strain K1; [3H] hypoxanthine incorporation; read-out: IC50 (nM) on K1. The class given is cell-based. An outline of the steps:
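K1 strain parasites grown in human red cells, 2.5% haematocrit, 0.3% parasitaemia, 37 °C, 4% CO2/3% O2; compounds in seven serial doubling dilutions.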

The structures appear in SMILES notation.

In the case of `COCCN(C)C(=O)[C@H](Cc1ccccc1)N(Cc1ccc(-c2ccccn2)cc1)C(=O)C=Cc1cc(C)nn1C` [Example 74, (S)-3-(2,5-Dimethyl-2H-pyrazol-3-yl)-N-{1-[(2-methoxy-ethyl)-methyl-carbamoyl]-2-phenyl-ethyl}-N-(4-pyridin-2-yl-benzyl)-acrylamide], the IC50 was determined as 40 nM.

Consider `COCCN(C)C(=O)[C@H](Cc1ccccc1)N(Cc1ccc(-c2ccccn2)cc1)C(=O)C=Cc1c(C)nn(C)c1C` [Example 75, (S)-N-{1-[(2-Methoxy-ethyl)-methyl-carbamoyl]-2-phenyl-ethyl}-N-(4-pyridin-2-yl-benzyl)-3-(1,3,5-trimethyl-1H-pyrazol-4-yl)-acrylamide], for which the IC50 was found to be 11 nM.

Consider `COCCN(C)C(=O)[C@H](Cc1ccccc1)N(Cc1ccc(-c2ccccn2)cc1)C(=O)C=Cc1cnc(C)n1C` [Example 76, (S)-3-(2,3-Dimethyl-3H-imidazol-4-yl)-N-{1-[(2-methoxy-ethyl)-methyl-carbamoyl]-2-phenyl-ethyl}-N-(4-pyridin-2-yl-benzyl)-acrylamide], for which the IC50 was 163 nM.

On to `COCCN(C)C(=O)[C@H](Cc1ccccc1)N(Cc1ccc(-c2ccccn2)cc1)C(=O)C=Cc1sc(C)nc1C` [Example 77, (S)-3-(2,4-Dimethyl-thiazol-5-yl)-N-{1-[(2-methoxy-ethyl)-methyl-carbamoyl]-2-phenyl-ethyl}-N-(4-pyridin-2-yl-benzyl)-acrylamide], for which the IC50 stood at 23 nM.

For `COCCN(C)C(=O)[C@H](Cc1ccccc1)N(Cc1ccc(-c2ccccn2)cc1)C(=O)C=Cc1csc(C)n1` [Example 78, (S)-N-{1-[(2-Methoxy-ethyl)-methyl-carbamoyl]-2-phenyl-ethyl}-3-(2-methyl-thiazol-4-yl)-N-(4-pyridin-2-yl-benzyl)-acrylamide], the concentration for half-maximal inhibition (IC50) worked out at 47 nM.

As to `COCCN(C)C(=O)[C@H](Cc1ccccc1)N(Cc1ccc(-c2ccccn2)cc1)C(=O)C=Cc1cc(C)on1` [Example 79, (S)-N-{1-[(2-Methoxy-ethyl)-methyl-carbamoyl]-2-phenyl-ethyl}-3-(5-methyl-isoxazol-3-yl)-N-(4-pyridin-2-yl-benzyl)-acrylamide], the IC50 worked out at 288 nM.

As to `COCCN(C)C(=O)[C@H](Cc1ccccc1)N(Cc1ccc(-c2ccccn2)cc1)C(=O)C=Cc1c(C)noc1C` [Example 80, (S)-3-(3,5-Dimethyl-isoxazol-4-yl)-N-{1-[(2-methoxy-ethyl)-methyl-carbamoyl]-2-phenyl-ethyl}-N-(4-pyridin-2-yl-benzyl)-acrylamide], the IC50 turned out to be 44 nM.

Regarding `COCCN(C)C(=O)[C@H](Cc1ccccc1)N(Cc1ccc(-c2ccccn2)cc1)C(=O)C=Cc1nc(C)oc1C` [Example 81, (S)-3-(2,5-Dimethyl-oxazol-4-yl)-N-{1-[(2-methoxy-ethyl)-methyl-carbamoyl]-2-phenyl-ethyl}-N-(4-pyridin-2-yl-benzyl)-acrylamide], the IC50 turned out to be 102 nM.

Take `COCCN(C)C(=O)[C@H](Cc1ccccc1)N(Cc1ccc(-c2ccccn2)cc1)C(=O)C=Cc1ccc(OC)nn1` [Example 82, (S)-N-{1-[(2-Methoxy-ethyl)-methyl-carbamoyl]-2-phenyl-ethyl}-3-(6-methoxy-pyridazin-3-yl)-N-(4-pyridin-2-yl-benzyl)-acrylamide]: the IC50 was found to be 99 nM.

As for `COCCN(C)C(=O)[C@H](Cc1ccccc1)N(Cc1ccc(-c2ccccn2)cc1)C(=O)C=Cc1cnc(C)nc1` [Example 83, (S)-N-{1-[(2-Methoxy-ethyl)-methyl-carbamoyl]-2-phenyl-ethyl}-3-(2-methyl-pyrimidin-5-yl)-N-(4-pyridin-2-yl-benzyl)-acrylamide], the IC50 worked out at 209 nM.

As for `COCCN(C)C(=O)[C@H](Cc1ccccc1)N(Cc1ccc(-c2ccccn2)cc1)C(=O)C=Cc1ccc(C)nc1` [Example 84, (S)-N-{1-[(2-Methoxy-ethyl)-methyl-carbamoyl]-2-phenyl-ethyl}-3-(6-methyl-pyridin-3-yl)-N-(4-pyridin-2-yl-benzyl)-acrylamide], the IC50 is 27 nM.

Consider `COCCN(C)C(=O)[C@H](Cc1ccccc1)N(Cc1ccc(-c2ccccn2)cc1)C(=O)C=Cc1ccc(Cl)nc1` [Example 85, (S)-3-(6-Chloro-pyridin-3-yl)-N-{1-[(2-methoxy-ethyl)-methyl-carbamoyl]-2-phenyl-ethyl}-N-(4-pyridin-2-yl-benzyl)-acrylamide], for which the IC50 turned out to be 31 nM.

For the compound `COCCN(C)C(=O)[C@H](Cc1ccccc1)N(Cc1ccc(-c2ccccn2)cc1)C(=O)C=Cc1ccc(C)cn1` [Example 86, (S)-N-{1-[(2-Methoxy-ethyl)-methyl-carbamoyl]-2-phenyl-ethyl}-3-(5-methyl-pyridin-2-yl)-N-(4-pyridin-2-yl-benzyl)-acrylamide], the IC50 was 27 nM.

Turning to `COCCN(C)C(=O)[C@H](Cc1ccccc1)N(Cc1ccc(-c2ccccn2)cc1)C(=O)C=Cc1ccc(OC)nc1` [Example 87, (S)-N-{1-[(2-Methoxy-ethyl)-methyl-carbamoyl]-2-phenyl-ethyl}-3-(6-methoxy-pyridin-3-yl)-N-(4-pyridin-2-yl-benzyl)-acrylamide], the IC50 was < 8 nM.

In the case of `COCCN(C)C(=O)[C@H](Cc1ccccc1)N(Cc1ccc(-c2ccccn2)cc1)C(=O)C=Cc1cnc(C(F)(F)F)nc1` [Example 88, (S)-N-{1-[(2-Methoxy-ethyl)-methyl-carbamoyl]-2-phenyl-ethyl}-N-(4-pyridin-2-yl-benzyl)-3-(2-trifluoromethyl-pyrimidin-5-yl)-acrylamide], the IC50 worked out at 45 nM.

Turning to `COCCN(C)C(=O)[C@H](Cc1ccccc1)N(Cc1ccc(-c2ccccn2)cc1)C(=O)C=Cc1ccc(C(F)(F)F)cn1` [Example 89, (S)-N-{1-[(2-Methoxy-ethyl)-methyl-carbamoyl]-2-phenyl-ethyl}-N-(4-pyridin-2-yl-benzyl)-3-(5-trifluoromethyl-pyridin-2-yl)-acrylamide], the IC50 was < 8 nM.

With `COCCN(C)C(=O)[C@H](Cc1ccccc1)N(Cc1ccc(-c2ccccn2)cc1)C(=O)C=Cc1cnn(C)c1C` [Example 90, (S)-3-(1,5-Dimethyl-1H-pyrazol-4-yl)-N-{1-[(2-methoxy-ethyl)-methyl-carbamoyl]-2-phenyl-ethyl}-N-(4-pyridin-2-yl-benzyl)-acrylamide], the IC50 is 43 nM.

For the compound `COCCN(C)C(=O)[C@H](Cc1ccccc1)N(Cc1ccc(-c2ccncc2)cc1)C(=O)C=Cc1ccn(C)n1` [Example 91, (S)-N-{1-[(2-Methoxy-ethyl)-methyl-carbamoyl]-2-phenyl-ethyl}-3-(1-methyl-1H-pyrazol-3-yl)-N-(4-pyridin-4-yl-benzyl)-acrylamide], the IC50 stood at 26 nM.

As to `COCCN(C)C(=O)[C@H](Cc1ccccc1)N(Cc1ccc(-c2ccncc2)cc1)C(=O)C=Cc1cnc(C)n1C` [Example 92, (S)-3-(2,3-Dimethyl-3H-imidazol-4-yl)-N-{1-[(2-methoxy-ethyl)-methyl-carbamoyl]-2-phenyl-ethyl}-N-(4-pyridin-4-yl-benzyl)-acrylamide], the IC50 amounted to 23 nM.

Regarding `COCCN(C)C(=O)[C@H](Cc1ccccc1)N(Cc1ccc(-c2ccncc2)cc1)C(=O)C=Cc1sc(C)nc1C` [Example 93, (S)-3-(2,4-Dimethyl-thiazol-5-yl)-N-{1-[(2-methoxy-ethyl)-methyl-carbamoyl]-2-phenyl-ethyl}-N-(4-pyridin-4-yl-benzyl)-acrylamide], the IC50 turned out to be 13 nM.

Turning to `COCCN(C)C(=O)[C@H](Cc1ccccc1)N(Cc1ccc(-c2ccncc2)cc1)C(=O)C=Cc1csc(C)n1` [Example 94, (S)-N-{1-[(2-Methoxy-ethyl)-methyl-carbamoyl]-2-phenyl-ethyl}-3-(2-methyl-thiazol-4-yl)-N-(4-pyridin-4-yl-benzyl)-acrylamide], the IC50 is 15 nM.

For the compound `COCCN(C)C(=O)[C@H](Cc1ccccc1)N(Cc1ccc(-c2ccncc2)cc1)C(=O)C=Cc1cc(C)on1` [Example 95, (S)-N-{1-[(2-Methoxy-ethyl)-methyl-carbamoyl]-2-phenyl-ethyl}-3-(5-methyl-isoxazol-3-yl)-N-(4-pyridin-4-yl-benzyl)-acrylamide], the IC50 amounted to 33 nM.

For the compound `COCCN(C)C(=O)[C@H](Cc1ccccc1)N(Cc1ccc(-c2ccncc2)cc1)C(=O)C=Cc1c(C)noc1C` [Example 96, (S)-3-(3,5-Dimethyl-isoxazol-4-yl)-N-{1-[(2-methoxy-ethyl)-methyl-carbamoyl]-2-phenyl-ethyl}-N-(4-pyridin-4-yl-benzyl)-acrylamide], the IC50 was 20 nM.

For `COCCN(C)C(=O)[C@H](Cc1ccccc1)N(Cc1ccc(-c2ccncc2)cc1)C(=O)C=Cc1nc(C)oc1C` [Example 97, (S)-3-(2,5-Dimethyl-oxazol-4-yl)-N-{1-[(2-methoxy-ethyl)-methyl-carbamoyl]-2-phenyl-ethyl}-N-(4-pyridin-4-yl-benzyl)-acrylamide], the half-maximal inhibitory concentration (IC50) was 15 nM.

On to `COCCN(C)C(=O)[C@H](Cc1ccccc1)N(Cc1ccc(-c2ccncc2)cc1)C(=O)C=Cc1csnn1` [Example 98, (S)-N-{1-[(2-Methoxy-ethyl)-methyl-carbamoyl]-2-phenyl-ethyl}-N-(4-pyridin-4-yl-benzyl)-3-[1,2,3]thiadiazol-4-yl-acrylamide], for which the IC50 was determined as 98 nM.

With `COCCN(C)C(=O)[C@H](Cc1ccccc1)N(Cc1ccc(-c2ccncc2)cc1)C(=O)C=Cc1ccc(Cl)nc1` [Example 99, (S)-3-(6-Chloro-pyridin-3-yl)-N-{1-[(2-methoxy-ethyl)-methyl-carbamoyl]-2-phenyl-ethyl}-N-(4-pyridin-4-yl-benzyl)-acrylamide], the IC50 was 17 nM.

For `COCCN(C)C(=O)[C@H](Cc1ccccc1)N(Cc1ccc(-c2ccncc2)cc1)C(=O)C=Cc1ccc(C)cn1` [Example 100, (S)-N-{1-[(2-Methoxy-ethyl)-methyl-carbamoyl]-2-phenyl-ethyl}-3-(5-methyl-pyridin-2-yl)-N-(4-pyridin-4-yl-benzyl)-acrylamide], the IC50 was 12 nM.

Take `COCCN(C)C(=O)[C@H](Cc1ccccc1)N(Cc1ccc(-c2ccncc2)cc1)C(=O)C=Cc1ccc(OC)nc1` [Example 101, (S)-N-{1-[(2-Methoxy-ethyl)-methyl-carbamoyl]-2-phenyl-ethyl}-3-(6-methoxy-pyridin-3-yl)-N-(4-pyridin-4-yl-benzyl)-acrylamide]: the IC50 amounted to 8 nM.

The values above are taken from patent US20110224210A1, “NOVEL BIS-AMIDES AS ANTI-MALARIAL AGENTS” (priority 2008, published 2011).
